Experimental data taken from ChEMBL document CHEMBL1132691, “Structure-immunosuppressive activity relationships of new analogues of 15-deoxyspergualin. 2. Structural modifications of the spermidine moiety” (1999).

Key:
Mus musculus [1] = assay: Tested in vivo against mouse graft-versus-host disease(GVHD) for survival (mean) after daily administration of 0.3 mg/kg (i.p.) using group of 8 mice/dose for 10 days.; format: functional; settings: route intraperitoneal
Mus musculus [2] = assay: Tested in vivo against mouse graft-versus-host disease(GVHD) for survival (mean) after daily administration of 3 mg/kg (i.p.) using group of 8 mice/dose for 10 days.; format: functional; settings: route intraperitoneal
Rattus norvegicus [3] = assay: The compound was tested in vivo against heart transplanted rat for survival (mean) after daily administration of 6 mg/kg(ip) for 10 days.; format: functional
Rattus norvegicus [4] = assay: The compound was tested in vivo against heart transplanted rat for survival (mean) after daily administration of 2.5 mg/kg(ip) for 10 days.; format: functional
Rattus norvegicus [5] = assay: The compound was tested in vivo against heart transplanted rat for survival (mean) after daily administration of 6 mg/kg(ip) for 10 days.

| SMILES | Mean survival (Mus musculus [1]) [days] | Mean survival (Mus musculus [2]) [days] | Mean survival (Rattus norvegicus [3]) [days] | Mean survival (Rattus norvegicus [4]) [days] | Mean survival (Rattus norvegicus [5]) [days] |
| --- | --- | --- | --- | --- | --- |
| NC(N)=NCCCCCCNC(=O)COC(=O)NCCCCNCCC(N)C(F)(F)F (configuration not stated) | 16 | 17 |  |  |  |
| CC(CCN)NCCCCNC(=O)CC(=O)NCCCCCCN=C(N)N (configuration not stated) | 11 | 12 |  |  |  |
| NCCCCNC(=O)OCC(=O)NCCCCCCN=C(N)N | 14 | 14 |  |  |  |
| CN(CCCN)CCCCNC(=O)CC(=O)NCCCCCCN=C(N)N | 14 | 14 |  |  |  |
| CCC(N)CCNCCCCNC(=O)OCC(=O)NCCCCCCN=C(N)N (configuration not stated) | 16 | 21 |  |  |  |
| CC(C)(N)CCNCCCCNC(=O)CC(=O)NCCCCCCN=C(N)N | 15 | 15 |  |  |  |
| C[C@H](N)CCNCCCCNC(=O)CC(=O)NCCCCCCN=C(N)N |  | 17 |  |  |  |
| C[C@H](N)CCNCCCCNC(=O)OCC(=O)NCCCCCCN=C(N)N | 16 | 25 | 9 |  |  |
| CC(CN)CNCCCCNC(=O)CC(=O)NCCCCCCN=C(N)N (configuration not stated) | 18 | 18 |  |  |  |
| CC(N)CCNCCCCNC(=O)OCC(=O)NCCCCCCN=C(N)N (configuration not stated) | 53 | 57 |  | 56 |  |
| CC(N)CCNCCCCNC(=O)CC(=O)NCCCCCCN=C(N)N (configuration not stated) | 17 | 60 | 24 |  |  |
| CC(CCCNCCCN)NC(=O)CC(=O)NCCCCCCN=C(N)N (configuration not stated) |  | 21 |  |  |  |
| C[C@@H](N)CCNCCCCNC(=O)CC(=O)NCCCCCCN=C(N)N | 26 | 49 | 68 |  |  |
| CC(CCCNC(=O)CC(=O)NCCCCCCN=C(N)N)NCCCN (configuration not stated) | 11 | 14 |  |  |  |
| NC(N)=NCCCCCCNC(=O)COC(=O)NCCCCNCCC(N)c1ccccc1 (configuration not stated) | 15 | 15 |  |  |  |
| NCCCNCCCCNC(=O)CC(=O)NCCCCCCN=C(N)N | 17 | 52 | 9 |  |  |
| C[C@@H](N)CCNCCCCNC(=O)OCC(=O)NCCCCCCNC(=N)N [ANISPERIMUS] | 60 | 60 |  | 80 |  |
| N=C(N)NCCCCCCC(=O)NC(O)C(=O)NCCCCNCCCN (configuration not stated) [GUSPERIMUS] |  |  |  |  | 38 |
| N=C(N)NCCCCCCNC(=O)COC(=O)NCCCCNCCCN [TRESPERIMUS] | 15 | 58 |  | 16 |  |
